Measured values taken from patent US20230139171A1 (SITA Information Networking Computing UK Limited, priority 2019, published 2023).

What was measured:
[1] = molecular target: T1, human TLR9 (Homo sapiens, UniProt Q9NR96); assay: TLR9 inhibition reporter assay (HEK-Blue cells, SEAP reporter, ODN2006 stimulation); assay type: cell-based; conditions: HEK-Blue cells overexpressing human TLR9, SEAP reporter, ODN2006 5 nM
T1 construct: host or cells: HEK-Blue cells
T1 sequence (Q9NR96 26-1032): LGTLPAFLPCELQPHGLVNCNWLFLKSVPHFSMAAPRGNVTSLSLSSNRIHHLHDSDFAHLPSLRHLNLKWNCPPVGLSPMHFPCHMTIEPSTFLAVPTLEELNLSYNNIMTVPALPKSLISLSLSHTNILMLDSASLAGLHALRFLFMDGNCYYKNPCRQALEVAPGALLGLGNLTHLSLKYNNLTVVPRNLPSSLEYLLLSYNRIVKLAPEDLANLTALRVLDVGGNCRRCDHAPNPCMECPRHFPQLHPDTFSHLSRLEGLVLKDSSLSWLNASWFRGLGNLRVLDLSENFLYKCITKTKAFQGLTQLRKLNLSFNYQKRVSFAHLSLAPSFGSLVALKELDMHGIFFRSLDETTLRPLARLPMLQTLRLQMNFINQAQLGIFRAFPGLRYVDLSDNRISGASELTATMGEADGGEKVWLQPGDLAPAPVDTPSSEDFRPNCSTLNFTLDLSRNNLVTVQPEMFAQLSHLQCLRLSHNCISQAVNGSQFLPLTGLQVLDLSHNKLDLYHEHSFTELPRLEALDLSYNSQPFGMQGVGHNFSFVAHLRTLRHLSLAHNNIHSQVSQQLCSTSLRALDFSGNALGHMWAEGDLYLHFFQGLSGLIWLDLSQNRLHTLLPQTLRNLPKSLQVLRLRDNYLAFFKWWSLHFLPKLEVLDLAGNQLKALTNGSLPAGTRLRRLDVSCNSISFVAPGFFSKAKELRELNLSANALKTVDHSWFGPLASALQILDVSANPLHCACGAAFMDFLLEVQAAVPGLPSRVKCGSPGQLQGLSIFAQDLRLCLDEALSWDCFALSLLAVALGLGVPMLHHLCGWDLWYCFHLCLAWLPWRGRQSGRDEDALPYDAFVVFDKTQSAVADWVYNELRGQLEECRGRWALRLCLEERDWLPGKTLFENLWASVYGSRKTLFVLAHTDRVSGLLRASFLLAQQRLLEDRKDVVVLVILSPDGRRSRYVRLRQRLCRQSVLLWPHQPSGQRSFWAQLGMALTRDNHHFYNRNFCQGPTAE
How it was run: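 Screening used HEK-Blue cells overexpressing one human TLR (7, 8 or 9) and an IFN-β minimal promoter–NF-κB/AP-1 SEAP construct. Stimulation lasted 22 h at 37 °C with receptor-specific agonist: gardiquimod, R848 or ODN2006 at 7.5 μM, 15.9 μM and 5 nM.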

[2] = test system: TLR7; assay: In vivo mouse TLR7 PD model (gardiquimod challenge, plasma IL-6 and IFN-alpha by ELISA); design: species or system C57BL/6 mice; conditions: oral
Method: In Vivo Mouse TLR7 PD Model:
Adult male C57BL/6 mice were used for the experiments. Mice (7 to 10 per group) were randomized into different treatment groups based on body weight. Mice from the respective treatment groups were administered orally with vehicle or test compound. Thirty min after the oral administration of vehicle or test compound, mice were challenged with intraperitoneal injection of gardiquimod for TLR7 PD model. Ninety minutes after gardiquimod injection, mice were bled under isoflurane anaesthesia and plasma IL-6 and IFN-alpha levels were estimated by using commercially available ELISA kit (BD Biosciences, PBL Life Sciences). At the end of experiment, mean cytokine data was plotted and one way ANOVA with Dunnett's test was performed to calculate the significance of test compound treated group vs. vehicle control group. Percent inhibition of cytokine induction was calculated for test compound treated group vs vehicle control group.

Which IC50 [1] does the source give for `COc1cc(-c2[nH]c3sc(C4CCC(NC5COC5)CC4)nc3c2C(C)C)cn2ncnc12` (single isomer, unassigned) [Example 65, N-(4-(6-isopropyl-5-(8-methoxy-[1,2,4]triazolo[1,5-a]pyridin-6-yl)-4H-pyrrolo[3,2-d]thiazol-2-yl)cyclohexyl)oxetan-3-amine] here?
Its IC50 is 10.1 µM.

What about the “% inhibition of IFN-alpha” value ([2]; dose 0.001 mg/kg) of the same compound?
The value was 50%.

And the “% inhibition of IL6” value ([2]; dose 0.001 mg/kg)?
The value was 21%.

And the “% inhibition of IFN-alpha” value ([2]; dose 0.005 mg/kg)?
Its value is 63%.

What about the “% inhibition of IL6” value ([2]; dose 0.005 mg/kg) of the same compound?
Its value is 42%.

And the “% inhibition of IFN-alpha” value ([2]; dose 0.025 mg/kg)?
Its value is 97%.

What about the “% inhibition of IL6” value ([2]; dose 0.025 mg/kg) of the same compound?
Its value is 78%.

And the “% inhibition of IFN-alpha” value ([2]; dose 0.050 mg/kg)?
The value was 99%.

What about the “% inhibition of IL6” value ([2]; dose 0.050 mg/kg) of the same compound?
The value was 94%.
